Experimental data published in ChEMBL document CHEMBL5344475, “Indole-containing pharmaceuticals: targets, pharmacological activities, and SAR studies” (RSC Med Chem, 2024).

Key:
[1] = biological target: 5-hydroxytryptamine receptor 1B (Homo sapiens, UniProt P28222); assay: Binding affinity to 5-HT1B receptor (unknown origin) assessed as inhibition constant
[2] = Terminal half life in human; format: ADME; details: read-out: beta t1/2 (converted)
[3] = Cmax in human plasma; format: ADME, cell-free
[4] = Plasma clearance in iv dosed C57BL/6J mouse; format: ADME, organism-based
[5] = Terminal half life in human at 10 mg/kg, iv; details: in vivo, read-out: beta t1/2 (converted)
[6] = Apparent oral clearance in human at 1 mg, po by LC-MS/MS analysis; format: ADME, organism-based; details: in vivo
[7] = Binding affinity to MT1 receptor (unknown origin) assessed as inhibition constant; parameters: species or system Homo sapiens
[8] = biological target: Prostaglandin G/H synthase 1 (Homo sapiens, UniProt P23219); assay: Inhibition of COX1 (unknown origin)
Chain of Prostaglandin G/H synthase 1 (P23219 whole entry): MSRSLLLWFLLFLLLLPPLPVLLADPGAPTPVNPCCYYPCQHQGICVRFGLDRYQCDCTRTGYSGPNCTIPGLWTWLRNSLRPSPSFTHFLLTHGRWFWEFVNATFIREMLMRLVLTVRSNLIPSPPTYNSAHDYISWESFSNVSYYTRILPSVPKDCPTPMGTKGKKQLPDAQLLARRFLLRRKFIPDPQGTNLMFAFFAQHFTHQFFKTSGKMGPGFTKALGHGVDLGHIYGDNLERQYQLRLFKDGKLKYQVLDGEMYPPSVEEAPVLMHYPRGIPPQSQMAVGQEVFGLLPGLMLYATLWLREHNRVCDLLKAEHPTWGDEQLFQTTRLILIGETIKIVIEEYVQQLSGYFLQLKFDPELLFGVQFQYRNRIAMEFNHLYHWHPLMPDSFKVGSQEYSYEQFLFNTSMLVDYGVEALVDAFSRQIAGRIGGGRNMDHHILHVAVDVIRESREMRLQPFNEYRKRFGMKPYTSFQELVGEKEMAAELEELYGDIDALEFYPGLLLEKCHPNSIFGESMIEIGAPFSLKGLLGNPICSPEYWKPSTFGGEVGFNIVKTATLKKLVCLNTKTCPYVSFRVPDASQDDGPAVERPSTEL

[9] = biological target: T1, Prostaglandin G/H synthase 2 (Homo sapiens, UniProt P35354); assay: Inhibition of COX-2 (unknown origin) using arachidonic acid as substrate preincubated for 15 mins followed by substrate addition by colorimetric assay
T1 sequence (P35354 whole entry): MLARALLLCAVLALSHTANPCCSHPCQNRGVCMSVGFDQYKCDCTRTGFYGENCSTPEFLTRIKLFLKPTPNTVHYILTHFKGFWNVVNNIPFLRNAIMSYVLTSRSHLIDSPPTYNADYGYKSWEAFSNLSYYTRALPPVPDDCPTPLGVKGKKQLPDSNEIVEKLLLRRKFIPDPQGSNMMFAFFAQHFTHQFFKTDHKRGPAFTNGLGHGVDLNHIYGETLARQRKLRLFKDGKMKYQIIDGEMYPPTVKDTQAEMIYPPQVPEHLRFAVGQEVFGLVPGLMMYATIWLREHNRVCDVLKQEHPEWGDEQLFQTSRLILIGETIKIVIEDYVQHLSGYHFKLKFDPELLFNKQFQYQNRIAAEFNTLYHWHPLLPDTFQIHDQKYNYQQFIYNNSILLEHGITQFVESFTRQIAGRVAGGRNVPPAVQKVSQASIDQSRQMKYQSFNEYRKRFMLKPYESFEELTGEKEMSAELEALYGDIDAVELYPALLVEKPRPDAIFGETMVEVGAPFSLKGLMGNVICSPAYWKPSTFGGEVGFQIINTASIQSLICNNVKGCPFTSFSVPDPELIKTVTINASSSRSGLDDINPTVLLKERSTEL

[10] = Half life of compound in PBS buffer; format: physicochemical
[11] = Apparent oral clearance in human
[12] = Volume of distribution in Wistar rat; format: ADME; details: in vivo
[13] = Plasma clearance in iv dosed human
[14] = Binding affinity to 5-HT3R (unknown origin) assessed as inhibition constant; parameters: species or system Homo sapiens
[15] = Oral bioavailability in human; format: ADME, organism-based; details: in vivo
[16] = Volume of distribution at steady state in iv dosed human; details: in vivo, read-out: Vdss
[17] = Elimination half life in human; format: ADME; details: read-out: beta t1/2 (converted)
[18] = Tmax in human plasma; format: ADME, cell-free
[19] = AUC in Sprague-Dawley rat at 10 mg/kg, iv by LC-MS/MS analysis; format: ADME, organism-based; parameters: dose 10 mg/kg, route iv; details: in vivo
[20] = AUC in ICR mouse; format: ADME; details: in vivo
[21] = Oral bioavailability in mouse; format: ADME, organism-based; details: in vivo
[22] = Elimination half life in human at 7.5 to 100 mg; format: ADME; details: dose 7.5-100 mg, read-out: beta t1/2 (converted)
D(1A) dopamine receptor = D(1A) dopamine receptor (Homo sapiens, UniProt P21728); assay: Binding affinity to dopamine D1 receptor (unknown origin) assessed as inhibition constant
Chain of D(1A) dopamine receptor (P21728 whole entry): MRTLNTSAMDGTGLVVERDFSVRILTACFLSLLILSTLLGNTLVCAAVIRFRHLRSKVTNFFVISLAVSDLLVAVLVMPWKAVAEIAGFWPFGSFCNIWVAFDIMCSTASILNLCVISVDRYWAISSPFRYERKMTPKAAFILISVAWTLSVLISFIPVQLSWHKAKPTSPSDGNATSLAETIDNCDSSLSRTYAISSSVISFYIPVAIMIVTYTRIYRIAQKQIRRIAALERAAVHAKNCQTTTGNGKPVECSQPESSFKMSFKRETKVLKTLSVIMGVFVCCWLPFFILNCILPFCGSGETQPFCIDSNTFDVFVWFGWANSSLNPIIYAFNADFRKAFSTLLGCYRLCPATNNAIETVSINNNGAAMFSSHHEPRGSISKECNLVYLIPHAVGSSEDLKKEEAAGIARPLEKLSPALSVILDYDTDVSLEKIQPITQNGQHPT

[23] = Apparent oral renal clearance in human; format: ADME; details: read-out: CL(app)
Dopamine receptor = assay: Inhibition of dopamine receptor (unknown origin); format: protein assay, Homo sapiens
[24] = Tmax in human; format: ADME
[25] = Half life in human; format: ADME
Half life in human = details: in vivo
[26] = biological target: Beta-2 adrenergic receptor (Homo sapiens, UniProt P07550); assay: Binding affinity to human beta 2 adrenergic receptor assessed as inhibition constant
Chain of Beta-2 adrenergic receptor (P07550 whole entry): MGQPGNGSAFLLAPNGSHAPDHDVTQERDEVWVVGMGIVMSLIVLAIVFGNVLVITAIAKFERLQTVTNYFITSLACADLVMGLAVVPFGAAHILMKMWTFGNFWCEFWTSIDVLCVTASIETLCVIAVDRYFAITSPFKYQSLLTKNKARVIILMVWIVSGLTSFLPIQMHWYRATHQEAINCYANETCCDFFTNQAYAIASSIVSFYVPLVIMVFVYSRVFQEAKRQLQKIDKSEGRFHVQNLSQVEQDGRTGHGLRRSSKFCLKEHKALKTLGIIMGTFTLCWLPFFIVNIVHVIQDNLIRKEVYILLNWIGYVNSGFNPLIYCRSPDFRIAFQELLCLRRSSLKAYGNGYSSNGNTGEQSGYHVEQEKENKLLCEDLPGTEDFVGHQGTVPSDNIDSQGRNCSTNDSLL

[27] = biological target: 5-hydroxytryptamine receptor 2B (Homo sapiens, UniProt P41595); assay: Binding affinity to 5-HT2B receptor (unknown origin) assessed as inhibition constant
Chain of 5-hydroxytryptamine receptor 2B (P41595 whole entry): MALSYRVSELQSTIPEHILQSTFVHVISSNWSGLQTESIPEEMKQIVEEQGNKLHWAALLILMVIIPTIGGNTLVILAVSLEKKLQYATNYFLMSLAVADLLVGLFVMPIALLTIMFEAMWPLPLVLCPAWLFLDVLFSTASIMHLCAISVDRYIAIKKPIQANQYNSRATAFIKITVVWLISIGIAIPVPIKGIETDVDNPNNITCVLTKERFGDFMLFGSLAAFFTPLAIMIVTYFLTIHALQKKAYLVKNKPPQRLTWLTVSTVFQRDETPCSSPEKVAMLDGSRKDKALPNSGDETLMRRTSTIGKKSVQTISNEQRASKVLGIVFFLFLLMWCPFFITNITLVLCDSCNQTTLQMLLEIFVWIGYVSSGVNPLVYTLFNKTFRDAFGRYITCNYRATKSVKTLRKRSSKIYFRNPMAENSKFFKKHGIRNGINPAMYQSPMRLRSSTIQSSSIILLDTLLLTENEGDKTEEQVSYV

[28] = Terminal half life in iv dosed mouse; format: ADME, organism-based; details: in vivo, read-out: beta t1/2 (converted)
[29] = Volume of distribution in human; format: ADME
[30] = Elimination half life in rat; format: ADME; details: in vivo, read-out: beta t1/2 (converted)
[31] = Volume of distribution in human at 2.5 mg; format: ADME

Chain of 5-hydroxytryptamine receptor 1B (P28222 whole entry): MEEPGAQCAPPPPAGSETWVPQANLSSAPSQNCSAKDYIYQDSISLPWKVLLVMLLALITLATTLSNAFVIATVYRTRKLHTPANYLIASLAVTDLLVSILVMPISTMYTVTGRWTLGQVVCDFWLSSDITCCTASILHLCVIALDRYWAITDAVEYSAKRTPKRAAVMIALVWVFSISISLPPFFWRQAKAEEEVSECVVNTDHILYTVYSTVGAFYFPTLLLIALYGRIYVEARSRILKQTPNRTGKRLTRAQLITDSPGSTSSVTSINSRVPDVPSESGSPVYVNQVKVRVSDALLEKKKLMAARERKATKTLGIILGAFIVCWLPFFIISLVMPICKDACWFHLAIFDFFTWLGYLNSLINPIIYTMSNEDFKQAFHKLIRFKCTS

CNS(=O)(=O)CCc1ccc2[nH]cc(C3CCN(C)CC3)c2c1
Ki [1]: 1.5 nM

COc1ccc2[nH]c3c(c2c1)CCN[C@]31CS[C@@H]2c3c(OC(C)=O)c(C)c4c(c3[C@@H](COC1=O)N1[C@@H]2[C@H]2c3c(cc(C)c(OC)c3O)C[C@@H]([C@@H]1O)N2C)OCO4
half-life [2]: 51 h | Cmax [3]: 107 µg/mL | clearance [4]: 183 mL/min

CN1CC(=O)N2[C@H](c3ccc4c(c3)OCO4)c3[nH]c4ccccc4c3C[C@@H]2C1=O
half-life [5]: 17.5 h | CL/F [6]: 41.7 mL/min | Ki [7]: 1.2 nM

COc1ccc2c(c1)c(CC(=O)OCC(=O)O)c(C)n2C(=O)c1ccc(Cl)cc1 [ACEMETACIN]
IC50 [8]: 10 nM | IC50 [9]: 10 nM | half-life [10]: 4.5 h

CCc1cc2c(cc1N1CCC(N3CCOCC3)CC1)C(C)(C)c1[nH]c3cc(C#N)ccc3c1C2=O [ALECTINIB]
CL/F [11]: 1370 mL/min | Vd [12]: 4020 L

Cc1[nH]cnc1CN1CCc2c(c3ccccc3n2C)C1=O [ALOSETRON]
clearance [13]: 600 mL/min | Ki [14]: 0.5 nM | bioavailability [15]: 50% | Vd [16]: 65 L | half-life [17]: 1.5 h

Cc1c(-c2ccc(O)cc2)n(Cc2ccc(OCCN3CCCCCC3)cc2)c2ccc(O)cc12 [BAZEDOXIFENE]
Tmax [18]: 2.5 h | AUC [19]: 71 ng·h/mL | Vd [12]: 14.7 L/kg

CC(C)C[C@H]1C(=O)N2CCC[C@H]2[C@]2(O)O[C@](NC(=O)[C@@H]3C=C4c5cccc6[nH]c(Br)c(c56)C[C@H]4N(C)C3)(C(C)C)C(=O)N12 [BROMOCRIPTINE]
AUC [20]: 2.38 ng·h/mL | bioavailability [21]: 90% | half-life [22]: 4.85 h

C=CCN1C[C@H](C(=O)N(CCCN(C)C)C(=O)NCC)C[C@@H]2c3cccc4[nH]cc(c34)C[C@H]21 [CABERGOLINE]
Ki (D(1A) dopamine receptor): 1.4 nM | CL renal [23]: 80 mL/min | EC50 (Dopamine receptor): 13 nM

CC(C(=O)O)c1ccc2c(c1)[nH]c1ccc(Cl)cc12 (stereo not given) [CARPROFEN]
Tmax [24]: 1 h | half-life [25]: 8 h

COc1ccccc1OCCNCC(O)COc1cccc2[nH]c3ccccc3c12 (stereo not given) [CARVEDILOL]
half-life (Half life in human): 7 h

CC(C)[C@@]1(NC(=O)[C@@H]2C[C@@H]3c4cccc5[nH]cc(c45)C[C@H]3N(C)C2)O[C@@]2(O)[C@@H]3CCCN3C(=O)[C@H](Cc3ccccc3)N2C1=O [DIHYDROERGOCRISTINE]
Ki [26]: 2.4 nM | half-life (Half life in human): 3.5 h

CN1C[C@H](C(=O)N[C@]2(C)O[C@@]3(O)[C@@H]4CCCN4C(=O)[C@H](Cc4ccccc4)N3C2=O)C[C@@H]2c3cccc4[nH]cc(c34)C[C@H]21 [DIHYDROERGOTAMINE]
Ki [27]: 3.7 nM | half-life [28]: 9 h

O=C(O[C@@H]1C[C@@H]2C[C@H]3C[C@H](C1)N2CC3=O)c1c[nH]c2ccccc12 [DOLASETRON]
Vd [29]: 5.8 L/kg

CC(C)n1c(/C=C/C(O)CC(O)CC(=O)O)c(-c2ccc(F)cc2)c2ccccc21 (stereo not given) [FLUVASTATIN]
Vd [29]: 0.35 L/kg

COc1ccc2c(c1)c(CC(=O)O)c(C)n2C(=O)c1ccc(Cl)cc1 [INDOMETHACIN]
half-life [30]: 7 h

CCN(CC)C(=O)N[C@H]1C=C2c3cccc4[nH]cc(c34)C[C@H]2N(C)C1 [LISURIDE]
half-life [22]: 1.8 h | Vd [31]: 1.73 L/kg

COc1ccc2[nH]cc(CCNC(C)=O)c2c1 [MELATONIN]
half-life [17]: 1 h | Ki [7]: 0.05 nM
